Measurements as given in US9951060B2, “2-acylaminothiazole derivative or salt thereof” (ASTELLAS PHARMA INC., priority 2014, dated 2018).
Structures can show the parent of a compound that is named as a salt.

Experiments:
rat isolated bladder = assay: Test Example 3: effect on electrical field stimulation-induced contraction in rat isolated bladder; conditions: 10 μM test substance; AUC of contraction, value before treatment = 100%; SD female rat bladder
Procedure: Test Example 3: Effect on Electrical Field Stimulation-Induced Contraction in Rat Isolated Bladder
As an effect on the nerve stimulation-dependent bladder contraction in in vitro, the effect of the Example compounds of the present invention in the electrical field stimulation-induced contraction of the rat isolated bladder was measured by the following method. That is, a bladder specimen having a width of about 2 mm and a length of about 10 mm in the longitudinal direction from the bladder isolated from a Sprague-Dawley (SD) female rat (Japan SLC, Inc.) was prepared. The prepared bladder specimen was suspended in an organ bath filled with 10 mL of a Krebs-Henseleite solution. The Krebs-Henseleite solution was aerated at 95% 02 and 5% CO2, and kept at 37° C. After carrying out stabilization at an initial tension of 1 g, the contraction was caused twice with 60 mM KCl. After stabilization of the specimen with a Krebs-Henseleite solution, the contraction was caused by carrying out electrical field stimulation at 20 V with an electrical stimulation device (Nihon Kohden) (a stimulation frequency of 8 Hz, a pulse width of 0.3 msec, and a stimulation time of 10 seconds). By repeating the transmural electrical stimulation at an interval of 2 minutes, a voltage was adjusted to obtain a contraction height of approximately 50% of the contractile response at 20 V. After the contraction by electrical field stimulation had been stabilized, 10 μL of the test substances dissolved in 100% dimethyl sulfoxide in advance (final concentrations of 3 μM, 10 μM, and 30 μM) was added thereto. The test substances were cumulatively administered at the following concentrations after the low-concentration contractile response had been stabilized. The response was taken into a personal computer through a PowerLab (registered trademark) (AD Instruments, Inc.), and analyzed by LabChart (registered trademark) (AD Instruments, Inc.). When the area under the response (area under curve, AUC) in each contraction response was calculated and the value before treatment with the test substance was taken as 100%, the enhancement rate (% of pre) of the isolated bladder contractions after treatment with the test substance was calculated.

[1] = biological target: human muscarinic M3 receptor (Homo sapiens, UniProt P20309)
Sequence of human muscarinic M3 receptor (P20309 whole entry): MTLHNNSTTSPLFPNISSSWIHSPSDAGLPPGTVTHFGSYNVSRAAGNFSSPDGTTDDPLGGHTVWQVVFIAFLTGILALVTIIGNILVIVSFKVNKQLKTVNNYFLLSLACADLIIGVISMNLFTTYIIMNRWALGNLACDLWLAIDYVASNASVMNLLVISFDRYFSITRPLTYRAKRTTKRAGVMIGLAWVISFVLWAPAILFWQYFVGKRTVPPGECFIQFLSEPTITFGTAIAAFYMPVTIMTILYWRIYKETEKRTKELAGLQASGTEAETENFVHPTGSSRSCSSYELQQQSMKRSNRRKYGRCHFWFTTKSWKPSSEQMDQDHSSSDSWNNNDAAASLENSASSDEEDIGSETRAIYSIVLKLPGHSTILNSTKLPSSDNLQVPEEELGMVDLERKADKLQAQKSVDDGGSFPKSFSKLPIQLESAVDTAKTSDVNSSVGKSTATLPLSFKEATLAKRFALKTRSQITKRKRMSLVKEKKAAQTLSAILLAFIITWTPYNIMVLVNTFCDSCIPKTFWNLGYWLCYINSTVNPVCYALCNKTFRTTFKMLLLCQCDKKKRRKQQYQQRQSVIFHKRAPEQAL
Description: Test Example 1: Evaluation of Muscarinic M3 Receptor Positive Allosteric Modulator Activity
a) Construction of Vector Expressing Human Muscarinic M3 Receptor
A human muscarinic M3 receptor gene (GenBank Accession No.: NM_000740.2) was introduced into an expression vector pcDNA3.1™ (Life Technologies).
b) Construction of Cells Stably Expressing Human Muscarinic M3 Receptor
A vector expressing a human muscarinic M3 receptor was introduced into a CHO—K1 cell (ATCC No.: CCL-61). The introduction was carried out according to the attached instructions, using a transfection reagent, Lipofectoamine (registered trademark) 2000 Reagent (Life Technologies). The cells were incubated in an alpha Modified Eagle Minimum Essential Medium (α-MEM) including 2 mM glutamine, 10% fetal bovine serum, and 2.0 mg/mL Geneticin (registered trademark) (Life Technologies) for 4 weeks to acquire a drug-resistant clone.
c) Measurement of Intracellular Ca^2+ Concentration
The cells obtained in b) above were suspended in an α-MEM including 2 mM glutamine, 10% fetal bovine serum, and 0.2 mg/mL Geneticin (registered trademark) to the amount from 1.2 to 1.5×10^4 cells/well the day before the experiment, dispensed into a 384-well plate (Model No. 355962, BD Biosciences), and incubated overnight at 37° C. and 5% CO2. The medium was replaced with a loading buffer (an assay buffer (Hank's balanced salt solution (HBSS), 1 g/L BSA, 20 mM HEPES (pH 7.5), and 2.5 mM probenecid), including 3.1 μM Fluo 4-AM (Dojindo Laboratories) and incubated for about 2 hours at room temperature. Thereafter, the cells were washed with a plate washer ELx405™ (BIO-TEK Instrument, Inc.) set with the assay buffer, and set in an intracellular Ca^2+ concentration measuring system (FLIPR^tetra (registered trademark), Molecular Device Co.). The test substances (final concentration of 1 μM or 10 μM) and carbachol (Sigma, final concentration of 0.0024 nM to 10 μM) which had each been dissolved in the assay buffer in advance were set in a FLIPR^tetra (registered trademark). The test substances were added to the cells in the device and after about 5 minutes, carbachol was added to the cells. An increase rate of the intracellular Ca^2+ concentration by carbachol was measured (excitement wavelength of 470 nm to 495 nm and a fluorescence wavelength of 515 nm to 575 nm).
For the muscarinic M3 receptor-positive allosteric modulator activity, a shift toward a lower concentration side of a carbachol concentration-response curve by the test substance was used as an index. […] For example, when the EC50 value of carbachol in the absence of the test substance was 0.1 μM and the EC50 value of carbachol in the presence of the test substance was 0.01 μM, the value of the muscarinic M3 receptor-positive allosteric modulator activity becomes 10, showing that the test substance causes a 10-fold shift in the EC50 value toward to the low concentration side.

| Structure (SMILES) | muscarinic M3 receptor-positive allosteric modulator activity, 1 μM (-fold shift) [1] | muscarinic M3 receptor-positive allosteric modulator activity, 10 μM (-fold shift) [1] | Enhancement rate (% of pre) of isolated bladder contractions (rat isolated bladder) |
| --- | --- | --- | --- |
| C[C@@H]1CCCN1Cc1sc(NC(=O)c2cnc(N3CCN(CC(=O)O)CC3)cn2)nc1-c1ccc(F)c(C(F)(F)F)c1 [Example 61] | 35 -fold shift | 229 -fold shift | 176 % of pre |
| C[C@@H]1CCCN1Cc1sc(NC(=O)c2cnc(N3CCN(CCC(=O)O)C[C@H]3C)cn2)nc1-c1cc(C(F)(F)F)cs1 [Example 3, 3-[(3R)-3-methyl-4-{5-[(5-{[(2R)-2-methylpyrrolidin-1-yl]methyl}-4-[4-(trifluoromethyl)thiophen-2-yl]-1,3-thiazol-2-yl)carbamoyl]pyrazin-2-yl}piperazin-1-yl]propanoic acid dihydrochloride] | 101 -fold shift | 253 -fold shift | 152 % of pre |
| C[C@@H]1CCCN1Cc1sc(NC(=O)c2cnc(N3CCN(CCC(=O)O)[C@@H](C)C3)cn2)nc1-c1cc(C(F)(F)F)cs1 [Example 95] | 91 -fold shift | 233 -fold shift | 150 % of pre |
| C[C@@H]1CCCN1Cc1sc(NC(=O)c2cnc(N3CCN(CCC(=O)O)CC3)cn2)nc1-c1cc(F)cc(C(F)(F)F)c1 [Example 49] | 67 -fold shift | 224 -fold shift | 153 % of pre |
| C[C@@H]1CCCN1Cc1sc(NC(=O)c2cnc(N3CCN(CC(=O)O)C[C@H]3C)cn2)nc1-c1cc(F)cc(C(F)(F)F)c1 [Example 141] | 45 -fold shift | 159 -fold shift | 121 % of pre |
| Cc1cc(OC(F)(F)F)cc(-c2nc(NC(=O)c3cnc(N4CCN(CCC(=O)O)CC4)cn3)sc2CN2CCC[C@H]2C)c1 [Example 46] | 29 -fold shift | 199 -fold shift | 132 % of pre |
| CCN(CC)Cc1sc(NC(=O)c2cnc(N3CCN(CCC(=O)O)CC3)cn2)nc1-c1cc(F)cc(C(F)(F)F)c1 [Example 109] | 30 -fold shift | 191 -fold shift | 183 % of pre |
| C[C@@H]1CCCN1Cc1sc(NC(=O)c2cnc(N3CCN(CC(=O)O)CC3)cn2)nc1-c1cc(Cl)cc(C(F)(F)F)c1 [Example 13] | 43 -fold shift | 326 -fold shift | 126 % of pre |
| CCOc1ccc(-c2nc(NC(=O)c3cnc(N4CCN(CCC(=O)O)C[C@H]4C)cn3)sc2CN2CCC[C@H]2CC)cc1C(F)(F)F [Example 133] | 30 -fold shift | 164 -fold shift | 151 % of pre |
| COc1cc(-c2nc(NC(=O)c3cnc(N4CCN(CCC(=O)O)CC4)cn3)sc2CN2CCC[C@H]2C)cc(C(F)(F)F)c1 [Example 52] | 36 -fold shift | 196 -fold shift | 132 % of pre |
| C[C@@H]1CCCN1Cc1sc(NC(=O)c2cnc(N3CCN(CCC(=O)O)CC3)cn2)nc1-c1cc(C2CC2)cc(C(F)(F)F)c1 [Example 67] | 40 -fold shift | 114 -fold shift | 116 % of pre |
| C[C@@H]1CC[C@@H](C)N1Cc1sc(NC(=O)c2cnc(N3CCN(CCC(=O)O)CC3)cn2)nc1-c1cc(F)cc(C(F)(F)F)c1 [Example 119] | 110 -fold shift | 503 -fold shift | 154 % of pre |
| COc1c(F)cc(-c2nc(NC(=O)c3cnc(N4CCN(CCC(=O)O)CC4)cn3)sc2CN2CCC[C@H]2C)cc1C(F)(F)F [Example 72] | 31 -fold shift | 152 -fold shift | 157 % of pre |
| C[C@@H]1CCCN1Cc1sc(NC(=O)c2cnc(N3CCN(CCC(=O)O)CC3)cn2)nc1-c1ccc(F)c(C(F)(F)F)c1 [Example 60] | 33 -fold shift | 235 -fold shift | 144 % of pre |
| C[C@@H]1CCCN1Cc1sc(NC(=O)c2cnc(N3CCN(CCC(=O)O)C[C@H]3C)cn2)nc1-c1cc(F)cc(C(F)(F)F)c1 [Example 140] | 28 -fold shift | 158 -fold shift | 161 % of pre |
| Cc1cc(OC(F)(F)F)cc(-c2nc(NC(=O)c3cnc(N4CCN(C(C)C(=O)O)CC4)cn3)sc2CN2CCC[C@H]2C)c1 (stereo partly drawn) [Example 48] | 27 -fold shift | 113 -fold shift | 143 % of pre |

Now from value to compound, other results behind:

| muscarinic M3 receptor-positive allosteric modulator activity, 1 μM (-fold shift) [1] | muscarinic M3 receptor-positive allosteric modulator activity, 10 μM (-fold shift) [1] | Structure (SMILES) | Enhancement rate (% of pre) of isolated bladder contractions (rat isolated bladder) |
| --- | --- | --- | --- |
| 102 -fold shift | 287 -fold shift | C[C@@H]1CCCN1Cc1sc(NC(=O)c2cnc(N3CCN(CC(=O)O)CC3)cn2)nc1-c1cc(Cl)cs1 [Example 51] | 151 % of pre |
| 52 -fold shift | 160 -fold shift | C[C@@H]1CCCN1Cc1sc(NC(=O)c2cnc(N3CCN(CCC(=O)O)[C@@H](C)C3)cn2)nc1-c1cc(Cl)cs1 [Example 142] | 196 % of pre |
| 31 -fold shift | 159 -fold shift | C[C@@H]1CCCN1Cc1sc(NC(=O)c2cnc(N3CCN(CCC(=O)O)CC3)cn2)nc1-c1ccc(Cl)c(C(F)(F)F)c1 [Example 15] | 124 % of pre |
| 11 -fold shift | 43 -fold shift | C[C@@H]1CCCN1Cc1sc(NC(=O)c2cnc(N3CCN(CCC(=O)O)CC3)cn2)nc1-c1cc(Cl)cs1 [Example 82] | 158 % of pre |
| 65 -fold shift | 81 -fold shift | CC[C@@H]1CCCN1Cc1sc(NC(=O)c2cnc(N3CCN(CCC(=O)O)[C@H](C)C3)cn2)nc1-c1cc(Cl)cs1 [Example 143] | 140 % of pre |
| 76 -fold shift | 224 -fold shift | COc1c(Cl)cc(-c2nc(NC(=O)c3cnc(N4CCN(CCC(=O)O)CC4)cn3)sc2CN2CCC[C@H]2C)cc1Cl [Example 43] | 179 % of pre |
| 36 -fold shift | 108 -fold shift | CC[C@@H]1CCCN1Cc1sc(NC(=O)c2cnc(N3CCN(CCC(=O)O)C[C@@H]3C)cn2)nc1-c1cc(Cl)cs1 [Example 28] | 123 % of pre |
| 33 -fold shift | 226 -fold shift | C[C@@H]1CCCN1Cc1sc(NC(=O)c2cnc(N3CCN(CCC(=O)O)CC3)cn2)nc1-c1cc(Cl)cc(C(F)(F)F)c1 [Example 11] | 123 % of pre |
| 108 -fold shift | 190 -fold shift | C[C@@H]1CCCN1Cc1sc(NC(=O)c2cnc(N3CCN(CCC(=O)O)CC3)cn2)nc1-c1cc(Cl)cs1 [Example 50] | 183 % of pre |
